Data taken from the OligoGym collection.
Where “and” joins values, the source holds several entries; their conditions need not be identical. Equal entries are not always repeated. HELM strings list units from the 5' end as sugar, base in round brackets, then linkage (d deoxyribose, r ribose, m 2'-O-methyl, p phosphodiester). Strings are as the collection lists them; they lack the last nucleoside at the 3' end of the tested compound. [moe] = 2'-O-(2-methoxyethyl) (MOE); [sp] = phosphorothioate linkage; [m5C] = 5-methylcytosine

Target: SMN2
Assay: mouse, dose not given
Conditions: ASO

| Substance | 3 h FOB score |
| --- | --- |
| RNA1{[moe]([m5C])[sp].[moe](T)[sp].[moe](T)[sp].[moe](T)[sp].[moe]([m5C])[sp].[moe](A)[sp].[moe](T)p.[moe](A)p.[moe](A)p.[moe](T)p.[moe](G)[sp].[moe]([m5C])[sp].[moe](T)[sp].[moe](G)[sp].[moe](G)}$$$$ (last 3' nucleoside missing) | 0.75 score 0-7 |
| RNA1{[moe]([m5C])[sp].[moe](A)[sp].[moe]([m5C])[sp].[moe](T)[sp].[moe](T)[sp].[moe](T)[sp].[moe]([m5C])[sp].[moe](A)[sp].[moe](T)[sp].[moe](A)[sp].[moe](A)[sp].[moe](T)p.[moe](G)p.[moe]([m5C])p.[moe](T)p.[moe](G)[sp].[moe](G)}$$$$ (last 3' nucleoside missing) | 0 score 0-7 |
| RNA1{[moe](A)[sp].[moe]([m5C])[sp].[moe](T)[sp].[moe](T)[sp].[moe](T)[sp].[moe]([m5C])[sp].[moe](A)[sp].[moe](T)p.[moe](A)p.[moe](A)p.[moe](T)[sp].[moe](G)[sp].[moe]([m5C])[sp].[moe](T)[sp].[moe](G)[sp].[moe](G)}$$$$ (last 3' nucleoside missing) | 1 score 0-7 |
| RNA1{[moe](T)[sp].[moe]([m5C])[sp].[moe](A)[sp].[moe]([m5C])[sp].[moe](T)[sp].[moe](T)[sp].[moe](T)[sp].[moe]([m5C])[sp].[moe](A)[sp].[moe](T)[sp].[moe](A)[sp].[moe](A)[sp].[moe](T)[sp].[moe](G)[sp].[moe]([m5C])[sp].[moe](T)[sp].[moe](G)[sp].[moe](G)p.[moe](A)}$$$$ (last 3' nucleoside missing) | 3.75 score 0-7 and 4 score 0-7 (3×) |
| RNA1{[moe]([m5C])[sp].[moe](A)[sp].[moe]([m5C])[sp].[moe](T)[sp].[moe](T)[sp].[moe](T)[sp].[moe]([m5C])[sp].[moe](A)[sp].[moe](T)[sp].[moe](A)[sp].[moe](A)[sp].[moe](T)[sp].[moe](G)p.[moe]([m5C])[sp].[moe](T)p.[moe](G)[sp].[moe](G)}$$$$ (last 3' nucleoside missing) | 0 score 0-7 |
| RNA1{[moe]([m5C])[sp].[moe](A)[sp].[moe]([m5C])[sp].[moe](T)[sp].[moe](T)[sp].[moe](T)[sp].[moe]([m5C])[sp].[moe](A)[sp].[moe](T)[sp].[moe](A)[sp].[moe](A)[sp].[moe](T)[sp].[moe](G)[sp].[moe]([m5C])[sp].[moe](T)[sp].[moe](G)[sp].[moe](G)[sp].[moe]([m5C])[sp].[moe](A)}$$$$ (last 3' nucleoside missing) | 0 score 0-7 |
| RNA1{[moe]([m5C])[sp].[moe](A)[sp].[moe]([m5C])p.[moe](T)[sp].[moe](T)[sp].[moe](T)[sp].[moe]([m5C])[sp].[moe](A)[sp].[moe](T)[sp].[moe](A)[sp].[moe](A)[sp].[moe](T)[sp].[moe](G)[sp].[moe]([m5C])[sp].[moe](T)p.[moe](G)[sp].[moe](G)}$$$$ (last 3' nucleoside missing) | 0 score 0-7 |
| RNA1{[moe]([m5C])[sp].[moe](A)[sp].[moe]([m5C])[sp].[moe](T)[sp].[moe](T)p.[moe](T)[sp].[moe]([m5C])[sp].[moe](A)[sp].[moe](T)[sp].[moe](A)[sp].[moe](A)[sp].[moe](T)[sp].[moe](G)[sp].[moe]([m5C])[sp].[moe](T)[sp].[moe](G)[sp].[moe](G)}$$$$ (last 3' nucleoside missing) | 0.5 score 0-7 |
| RNA1{[moe]([m5C])[sp].[moe](A)p.[moe]([m5C])p.[moe](T)p.[moe](T)p.[moe](T)[sp].[moe]([m5C])[sp].[moe](A)[sp].[moe](T)[sp].[moe](A)[sp].[moe](A)[sp].[moe](T)[sp].[moe](G)p.[moe]([m5C])p.[moe](T)p.[moe](G)[sp].[moe](G)}$$$$ (last 3' nucleoside missing) | 0 score 0-7 |
| RNA1{[moe]([m5C])[sp].[moe](A)[sp].[moe]([m5C])[sp].[moe](T)[sp].[moe](T)[sp].[moe](T)[sp].[moe]([m5C])[sp].[moe](A)[sp].[moe](T)[sp].[moe](A)[sp].[moe](A)p.[moe](T)[sp].[moe](G)[sp].[moe]([m5C])[sp].[moe](T)p.[moe](G)[sp].[moe](G)}$$$$ (last 3' nucleoside missing) | 0 score 0-7 |
| RNA1{[moe](T)[sp].[moe](T)[sp].[moe]([m5C])[sp].[moe](A)[sp].[moe]([m5C])[sp].[moe](T)[sp].[moe](T)[sp].[moe](T)[sp].[moe]([m5C])p.[moe](A)[sp].[moe](T)[sp].[moe](A)[sp].[moe](A)[sp].[moe](T)[sp].[moe](G)[sp].[moe]([m5C])[sp].[moe](T)[sp].[moe](G)}$$$$ (last 3' nucleoside missing) | 3.75 score 0-7 |
| RNA1{[moe]([m5C])[sp].[moe](T)p.[moe](T)p.[moe](T)[sp].[moe]([m5C])[sp].[moe](A)[sp].[moe](T)[sp].[moe](A)[sp].[moe](A)[sp].[moe](T)[sp].[moe](G)[sp].[moe]([m5C])p.[moe](T)p.[moe](G)[sp].[moe](G)}$$$$ (last 3' nucleoside missing) | 0.25 score 0-7 |
| RNA1{[moe](T)[sp].[moe]([m5C])[sp].[moe](A)[sp].[moe]([m5C])[sp].[moe](T)[sp].[moe](T)p.[moe](T)[sp].[moe]([m5C])[sp].[moe](A)[sp].[moe](T)[sp].[moe](A)[sp].[moe](A)[sp].[moe](T)[sp].[moe](G)[sp].[moe]([m5C])[sp].[moe](T)[sp].[moe](G)}$$$$ (last 3' nucleoside missing) | 4 score 0-7 |
| RNA1{[moe]([m5C])[sp].[moe](A)p.[moe]([m5C])p.[moe](T)[sp].[moe](T)[sp].[moe](T)[sp].[moe]([m5C])[sp].[moe](A)[sp].[moe](T)[sp].[moe](A)[sp].[moe](A)[sp].[moe](T)[sp].[moe](G)[sp].[moe]([m5C])[sp].[moe](T)[sp].[moe](G)[sp].[moe](G)}$$$$ (last 3' nucleoside missing) | 0 score 0-7 |
| RNA1{[moe]([m5C])[sp].[moe](A)[sp].[moe]([m5C])[sp].[moe](T)[sp].[moe](T)[sp].[moe](T)[sp].[moe]([m5C])[sp].[moe](A)[sp].[moe](T)p.[moe](A)[sp].[moe](A)[sp].[moe](T)[sp].[moe](G)[sp].[moe]([m5C])[sp].[moe](T)p.[moe](G)[sp].[moe](G)}$$$$ (last 3' nucleoside missing) | 0 score 0-7 |
| RNA1{[moe]([m5C])[sp].[moe](A)p.[moe]([m5C])[sp].[moe](T)[sp].[moe](T)[sp].[moe](T)p.[moe]([m5C])[sp].[moe](A)[sp].[moe](T)[sp].[moe](A)[sp].[moe](A)[sp].[moe](T)[sp].[moe](G)[sp].[moe]([m5C])[sp].[moe](T)[sp].[moe](G)[sp].[moe](G)}$$$$ (last 3' nucleoside missing) | 0 score 0-7 |
| RNA1{[moe]([m5C])[sp].[moe](A)[sp].[moe]([m5C])[sp].[moe](T)[sp].[moe](T)[sp].[moe](T)[sp].[moe]([m5C])[sp].[moe](A)[sp].[moe](T)p.[moe](A)[sp].[moe](A)[sp].[moe](T)[sp].[moe](G)[sp].[moe]([m5C])[sp].[moe](T)[sp].[moe](G)[sp].[moe](G)}$$$$ (last 3' nucleoside missing) | 0 score 0-7 |
| RNA1{[moe](T)[sp].[moe]([m5C])p.[moe](A)[sp].[moe]([m5C])p.[moe](T)[sp].[moe](T)[sp].[moe](T)[sp].[moe]([m5C])[sp].[moe](A)[sp].[moe](T)[sp].[moe](A)[sp].[moe](A)[sp].[moe](T)[sp].[moe](G)[sp].[moe]([m5C])[sp].[moe](T)[sp].[moe](G)}$$$$ (last 3' nucleoside missing) | 3.75 score 0-7 |
| RNA1{[moe]([m5C])[sp].[moe](A)[sp].[moe]([m5C])[sp].[moe](T)[sp].[moe](T)[sp].[moe](T)[sp].[moe]([m5C])p.[moe](A)p.[moe](T)p.[moe](A)p.[moe](A)p.[moe](T)[sp].[moe](G)[sp].[moe]([m5C])[sp].[moe](T)[sp].[moe](G)[sp].[moe](G)}$$$$ (last 3' nucleoside missing) | 0 score 0-7 |
| RNA1{[moe](T)[sp].[moe]([m5C])[sp].[moe](A)[sp].[moe]([m5C])[sp].[moe](T)[sp].[moe](T)[sp].[moe](T)[sp].[moe]([m5C])[sp].[moe](A)p.[moe](T)[sp].[moe](A)[sp].[moe](A)[sp].[moe](T)[sp].[moe](G)p.[moe]([m5C])[sp].[moe](T)[sp].[moe](G)}$$$$ (last 3' nucleoside missing) | 3.5 score 0-7 |
| RNA1{[moe](T)[sp].[moe]([m5C])p.[moe](A)[sp].[moe]([m5C])[sp].[moe](T)[sp].[moe](T)[sp].[moe](T)[sp].[moe]([m5C])[sp].[moe](A)[sp].[moe](T)[sp].[moe](A)[sp].[moe](A)[sp].[moe](T)[sp].[moe](G)[sp].[moe]([m5C])p.[moe](T)[sp].[moe](G)}$$$$ (last 3' nucleoside missing) | 3.5 score 0-7 |
| RNA1{[moe]([m5C])[sp].[moe](A)[sp].[moe]([m5C])[sp].[moe](T)[sp].[moe](T)[sp].[moe](T)p.[moe]([m5C])p.[moe](A)[sp].[moe](T)[sp].[moe](A)[sp].[moe](A)[sp].[moe](T)[sp].[moe](G)[sp].[moe]([m5C])[sp].[moe](T)[sp].[moe](G)[sp].[moe](G)}$$$$ (last 3' nucleoside missing) | 0 score 0-7 |
| RNA1{[moe]([m5C])[sp].[moe](A)[sp].[moe]([m5C])p.[moe](T)[sp].[moe](T)[sp].[moe](T)[sp].[moe]([m5C])[sp].[moe](A)[sp].[moe](T)[sp].[moe](A)[sp].[moe](A)[sp].[moe](T)[sp].[moe](G)[sp].[moe]([m5C])[sp].[moe](T)[sp].[moe](G)[sp].[moe](G)}$$$$ (last 3' nucleoside missing) | 1 score 0-7 |
| RNA1{[moe](A)[sp].[moe](T)p.[moe](T)[sp].[moe]([m5C])p.[moe](A)[sp].[moe]([m5C])[sp].[moe](T)[sp].[moe](T)[sp].[moe](T)[sp].[moe]([m5C])[sp].[moe](A)[sp].[moe](T)[sp].[moe](A)[sp].[moe](A)[sp].[moe](T)[sp].[moe](G)[sp].[moe]([m5C])[sp].[moe](T)[sp].[moe](G)}$$$$ (last 3' nucleoside missing) | 3.5 score 0-7 |
